Measurements from patent publication US9212168B2 (priority 2011, dated 2015).

Each compound was assayed on HCV genotype 1a replicon (assay: HCV genotype 1a replicon assay (NS3 protease activity readout)). Settings: HCV genotype 1a replicon.
Assay type: cell-based, hepatitis C virus
In short: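 Genotype 1a subgenomic replicon cells (APC89, Huh7.5) were treated with compound dose-responses in G418-free medium, 0.5% DMSO final, for 48 or 72 hours at 37° C. Lysate NS3/4a protease activity measured with 15 μM FRET substrate, 20 min at 37° C (ex 340/em 509 nm); EC50 by 4-parameter fit.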

| Structure (SMILES) | Genotype 1a |
| --- | --- |
| COC(=O)N[C@H](C(=O)N1C[C@@H](C)C[C@H]1c1nc(-c2ccc(-c3cc(Cl)c(NC(=O)c4ccc(N5CCN(C(=O)C(O)C(F)(F)F)C[C@H]5C)nc4)cc3OC(F)(F)F)cc2)c[nH]1)C(C)C (some centres unmarked) [Example 1-97] | C (C represents pEC50 between and 9 and about 10, (EC50 between 1 nM and 0.1 nM)) |
| COC(=O)N[C@H](C(=O)N1C[C@@H](C)C[C@H]1c1nc(-c2ccc(-c3ccc(C(=O)Nc4ccc(N5CCN(C(=O)[C@]6(C)CCCN6C(=O)[C@@H](NC(=O)OC)C(C)C)C[C@H]5C)nc4)cc3OC(F)(F)F)cc2)c[nH]1)C(C)C [Example 4-3] | D (D represents pEC50>10 (EC50<0.1 nM)) |
| COC(=O)N[C@H](C(=O)N1C[C@@H](C)C[C@H]1c1nc(-c2ccc(-c3cc(Cl)c(NC(=O)c4ccc(N5CCN(C(=O)C6CC6)C[C@H]5C)nc4)cc3C(F)(F)F)cc2)c[nH]1)C(C)C [Example 1-54] | D (D represents pEC50>10 (EC50<0.1 nM)) |
| COC(=O)N[C@H](C(=O)N1C[C@@H](C)C[C@H]1c1nc(-c2ccc(-c3ccc(C(=O)Nc4ccc(N5C[C@H](C)N(C(=O)C6CC6(F)F)C[C@H]5C)nc4)cc3OC(F)(F)F)cc2)c[nH]1)C(C)C (some centres unmarked) [Example 4-22] | C (C represents pEC50 between and 9 and about 10, (EC50 between 1 nM and 0.1 nM)) |
| COC(=O)N[C@H](C(=O)N1[C@@H](C)CC[C@H]1c1nc(-c2ccc(-c3ccc(C(=O)Nc4ccc(N5CCN(C(=O)C(C)(C)C)C[C@H]5C)nc4)cc3OC(F)(F)F)cc2)c[nH]1)C(C)C [Example 18-4] | C (C represents pEC50 between and 9 and about 10, (EC50 between 1 nM and 0.1 nM)) |
| COC(=O)NC(C(=O)N1CC(C)CC1c1nc(-c2ccc(-c3cc(Cl)c(NC(=O)c4ccc(N5CCN(C(=O)C6CC6(F)Cl)CC5C)nc4)cc3OC(F)(F)F)cc2)c[nH]1)C(C)C (mixture of isomers) [Example 1-59] | D (D represents pEC50>10 (EC50<0.1 nM)) |
| COC(=O)N[C@H](C(=O)N1C[C@@H](C)C[C@H]1c1nc(-c2ccc(-c3cc(Cl)c(NC(=O)c4ccc(N5CCN(C(=O)NC(C)C)C[C@H]5C)nc4)cc3OC(F)(F)F)cc2)c[nH]1)C(C)C [Example 1-72] | D (D represents pEC50>10 (EC50<0.1 nM)) |
| COC(=O)NC(C(=O)N1CC(OC)CC1c1nc(-c2ccc(-c3cc(Cl)c(NC(=O)c4ccc(N5CCN(C(=O)C(C)(C)CO)CC5C)nc4)cc3OC(F)(F)F)cc2)c[nH]1)C(C)(C)O (centres unmarked) [Example 16-9] | D (D represents pEC50>10 (EC50<0.1 nM)) |
| COC(=O)N[C@H](C(=O)N1C[C@@H](C)C[C@H]1c1nc(-c2ccc(-c3ccc(NC(=O)c4ccc(N5CCN(C(=O)N(C)C)C[C@H]5C)nc4)cc3C(F)(F)F)cc2)c[nH]1)C(C)C [Example 1-64] | C (C represents pEC50 between and 9 and about 10, (EC50 between 1 nM and 0.1 nM)) |
| COC(=O)NC(C(=O)N1CC(OC)CC1c1nc(-c2ccc(-c3ccc(NC(=O)c4ccc(N5CCN(C(=O)C(C)(C)C)CC5C)nc4)cc3OC(F)(F)F)cc2)c[nH]1)C(C)O (centres unmarked) [Example 16-10] | C (C represents pEC50 between and 9 and about 10, (EC50 between 1 nM and 0.1 nM)) |
| COC(=O)N[C@H](C(=O)N1C[C@@H](C)C[C@H]1c1nc(-c2ccc(-c3cc(Cl)c(NC(=O)c4ccc(N5CCN(C(=O)C(C)(C)C)C[C@H]5C)nc4)cc3C(F)(F)F)cc2)c[nH]1)C1CCCC1 [Example 19-11] | D (D represents pEC50>10 (EC50<0.1 nM)) |
| COC(=O)N[C@@H](C(=O)N1C[C@@H](C)C[C@H]1c1nc(-c2ccc(-c3cc(Cl)c(NC(=O)c4ccc(N5CCN(C(=O)C(C)(C)C)C[C@H]5C)nc4)cc3C(F)(F)F)cc2)c[nH]1)C1CCCCC1 [Example 19-3] | A (A represents a pEC50 value between 6 and 8 (EC50 between 1 μM and 10 nM)) |
| COC(=O)N[C@H](C(=O)N1C[C@@H](O)C[C@H]1c1nc(-c2ccc(-c3cc(Cl)c(NC(=O)c4ccc(N5CCN(C(=O)C(C)(C)CO)C[C@H]5C)nc4)cc3OC(F)(F)F)cc2)c[nH]1)C1CCOCC1 [Example 26-11] | A (A represents a pEC50 value between 6 and 8 (EC50 between 1 μM and 10 nM)) |
| COC(=O)N[C@H](C(=O)N1C[C@@H](C)C[C@H]1c1nc(-c2ccc(-c3ccc(C(=O)Nc4ccc(N5C[C@H](C)N(C(=O)[C@@]6(O)CC6(C)C)C[C@H]5C)nc4)cc3OC(F)(F)F)cc2)c[nH]1)C(C)C [Example 4-38] | C (C represents pEC50 between and 9 and about 10, (EC50 between 1 nM and 0.1 nM)) |
| CCC(=O)N1CCN(c2ccc(C(=O)Nc3cc(OC(F)(F)F)c(-c4ccc(-c5c[nH]c([C@@H]6C[C@H](C)CN6C(=O)[C@@H](NC(=O)OC)C(C)C)n5)cc4)cc3Cl)cn2)[C@H](C)C1 [Example 1-73] | D (D represents pEC50>10 (EC50<0.1 nM)) |
| COC(=O)N[C@H](C(=O)N1C[C@@H](C)C[C@H]1c1nc(-c2ccc(-c3ccc(C(=O)Nc4ccc(N5CCN(C(=O)C(C)(C)C)C[C@H]5C)nc4)cc3OC(F)F)cc2)c[nH]1)C1CCOCC1 [Example 25-5] | D (D represents pEC50>10 (EC50<0.1 nM)) |

Same assay, conditions: Hepatitis C virus, read-out: Genotype 1a, HCV genotype 1a replicon

| Structure (SMILES) | EC50 [nM] |
| --- | --- |
| COC(=O)N[C@H](C(=O)N1C[C@@H](N(C)C)C[C@H]1c1nc(-c2ccc(-c3ccc(C(=O)Nc4ccc(N5CCN(C(=O)C(C)(C)C)C[C@H]5C)nc4)cc3OC(F)(F)F)cc2)c(Cl)[nH]1)C(C)C [Example 10-3] | < 0.1 |
| CCN(CC)C(C(=O)N1C[C@@H](C)C[C@H]1c1nc(-c2ccc(-c3cc(Cl)c(NC(=O)c4ccc(N5C[C@H](C)N(C(=O)NC)C[C@H]5C)nc4)cc3OC(F)(F)F)cc2)c[nH]1)c1ccccc1 (some centres unmarked) [Example 7-12] | < 0.1 |
| COC(=O)N[C@H](C(=O)N1C[C@@H](C)C[C@H]1c1nc(-c2ccc(-c3cc(Cl)c(NC(=O)c4ccc(N5CCN(C(=O)C(C)(C)C)C(CO)C5)nc4)cc3OC(F)(F)F)cc2)c[nH]1)C(C)C (some centres unmarked) [Example 14-1] | 0.1 to 1 |
| COC(=O)N[C@H](C(=O)N1C[C@@H](C)C[C@H]1c1nc(-c2ccc(-c3cc(Cl)c(NC(=O)c4ccc(N5CCN(C(=O)C(C)(C)CNC(=O)CCCC(=O)O)C[C@H]5C)nc4)cc3OC(F)(F)F)cc2)c[nH]1)C(C)C [Example 12-34] | 0.1 to 1 |
| COC(=O)N[C@H](C(=O)N1C[C@@H](C)C[C@H]1c1nc(-c2ccc(-c3cc(F)c(NC(=O)c4ccc(N5CCN(C(=O)C(C)(C)CO)C[C@H]5C)nc4)cc3OC(F)(F)F)cc2)c[nH]1)[C@H](C)O [Example 13-26] | < 0.1 |
| COCCO[C@H](C)[C@H](NC(=O)OC)C(=O)N1C[C@@H](C)C[C@H]1c1nc(-c2ccc(-c3cc(Cl)c(NC(=O)c4ccc(N5CCN(C(=O)C(C)(C)C)C[C@H]5C)nc4)cc3OC(F)(F)F)cc2)c[nH]1 [Example 13-9] | < 0.1 |
| COC(=O)NC(C(=O)N1C[C@@H](C)C[C@H]1c1nc(-c2ccc(-c3c(F)cc(NC(=O)c4ccc(N5CCN(C(=O)C(C)(C)C)C[C@H]5C)nc4)cc3F)cc2)c[nH]1)C1CCS(=O)(=O)CC1 (some centres unmarked) [Example 21-2] | 10 to 1000 |
| CCOCCC(C)(C)C(=O)N1CCN(c2ccc(C(=O)Nc3cc(OC(F)(F)F)c(-c4ccc(-c5c[nH]c([C@@H]6C[C@H](C)CN6C(=O)[C@@H](NC(=O)OC)C(C)C)n5)cc4)cc3Cl)cn2)[C@H](C)C1 [Example 12-3] | < 0.1 |
| COC(=O)NC(C(=O)N1C[C@@H](C)C[C@H]1c1nc(-c2ccc(-c3cc(Cl)c(C(=O)Nc4ccc(N5CCN(C(=O)C(C)(C)C)C[C@H]5C)nc4)cc3OC(F)(F)F)cc2)c[nH]1)C1CCCCC1 (some centres unmarked) [Example 23-3] | 0.1 to 1 |
| CCC(CO)(CO)C(=O)N1CCN(c2ccc(C(=O)Nc3cc(OC(F)(F)F)c(-c4ccc(-c5c[nH]c([C@@H]6C[C@H](C)CN6C(=O)[C@@H](NC(=O)OC)C(C)C)n5)cc4)cc3Cl)cn2)[C@H](C)C1 [Example 12-4] | < 0.1 |
